# Experimental data from patent US20260158111A1, “USE OF TGF IN THE PREVENTION VIRUS INFECTION OF THE RESPIRATORY TRACT” (FrieslandCampina Nederland B.V., priority 2021, published 2026).
# System: Detroit D562 cells
# Assay: Airway epithelial cells pretreated with component, then stimulated with viral infection proxy poly I:C; cytokine ELISA of supernatant
# Type: cell-based
# Conditions: Example 7; Galunisertib alone 100 nM
# Method: Detroit […] cells (ATCC-CCL138) were cultured in a T75 flask (Corning cat. No. 430641) in minimum essential medium (MEM, Invitrogen Catalog No. 21090-022) with 1× non-essential amino acids (Invitrogen cat. No. 11140-035), 10 mM sodium pyruvate (Invitrogen cat. No. 11360-039), 2 mM glutamax (Invitrogen cat. No. 35050-038), 1000 U/ml antibiotics penicillin, 1000 μg/ml […] and 10% serum (Hyclone, GE healthcare Life Sciences, lot. No. RB35936), henceforth called 10% complete medium with serum (CMS). Cells were trypsinized when confluency of 80% or greater was achieved, using 3 ml of Trypsin-EDTA (Invitrogen, cat. No. 25200-056) and resuspended into 12 ml of 10% CMS. Cells were counted and seeded at 6*10^4 cells/ml in three 24-well tissue culture treated plate (Corning cat. No. 3527) with 1 ml per well. These were cultured for one week till confluent. […] All the components were calibrated on protein concentration and added on cells at the calculated total protein concertation of 1 mg/ml on dry matter. […] ELISA kits from R&D Systems (Biotechne) were used to quantify cytokines IL-8/CXCL8 (DY208), IL-6 (DY206), TNF-α (DY210) and IFN-λ1/3 (DY1598B) according to the manufacturer's guidelines. Absorbance was measured at 450 nm and corrected for at 570 nm using the Biorad iMark plate reader & Imark software version 6.2. Cytokines were quantified before and after the addition of poly I:C.
compound,measurement,value
Cc1cccc(-c2nn3c(c2-c2ccnc4ccc(C(N)=O)cc24)CCC3)n1 [Galunisertib],effect of Galunisertib alone on the cells,had no effect on the cells
